Laboratory results reported in the NIST ThermoML archive (doi:10.1016/j.jct.2018.04.003).
Numbers after ± are expanded uncertainties.

Experiment: mn = molality of the nth substance listed, in mol/kg
Conditions: 101.3 kPa, Liquid; for speed of sound: Frequency=2 MHz, Linear variable-path acoustic interferometer; for mass density: Pycnometric method

NNC(=O)c1ccncc1 [isonicotinic acid hydrazide] + O
Conditions	mass density [kg/m3]	speed of sound [m/s]
288.15 K, m1 = 0.0099	999.49 ± 0.55	1466.6 ± 1.8
288.15 K, m1 = 0.02	999.88 ± 0.55	1467.3 ± 1.8
288.15 K, m1 = 0.03	1000.26 ± 0.55	1468 ± 1.8
288.15 K, m1 = 0.0401	1000.64 ± 0.55	1468.7 ± 1.8
288.15 K, m1 = 0.0495	1001 ± 0.55	1469.4 ± 1.8
288.15 K, m1 = 0.055	1001.19 ± 0.55	1469.8 ± 1.8
288.15 K, m1 = 0.06	1001.38 ± 0.55	1470.1 ± 1.8
288.15 K, m1 = 0.065	1001.55 ± 0.55	1470.5 ± 1.8
288.15 K, m1 = 0.0708	1001.77 ± 0.55	1470.9 ± 1.8
288.15 K, m1 = 0.075	1001.92 ± 0.55	1471.2 ± 1.8
288.15 K, m1 = 0.0809	1002.12 ± 0.55	1471.6 ± 1.8
288.15 K, m1 = 0.0846	1002.25 ± 0.55	1471.9 ± 1.8
288.15 K, m1 = 0.0901	1002.45 ± 0.55	1472.3 ± 1.8
288.15 K, m1 = 0.0949	1002.62 ± 0.55	1472.6 ± 1.8
288.15 K, m1 = 0.1002	1002.81 ± 0.55	1473 ± 1.8
298.15 K, m1 = 0.0099	997.39 ± 0.55	1497.4 ± 1.8
298.15 K, m1 = 0.0197	997.69 ± 0.55	1498.1 ± 1.8
298.15 K, m1 = 0.0299	998.02 ± 0.55	1498.8 ± 1.8
298.15 K, m1 = 0.04	998.35 ± 0.55	1499.6 ± 1.8
298.15 K, m1 = 0.0499	998.67 ± 0.55	1500.3 ± 1.8
298.15 K, m1 = 0.055	998.83 ± 0.55	1500.6 ± 1.8
298.15 K, m1 = 0.0599	998.99 ± 0.55	1500.9 ± 1.8
298.15 K, m1 = 0.0649	999.15 ± 0.55	1501.3 ± 1.8
298.15 K, m1 = 0.0699	999.31 ± 0.55	1501.6 ± 1.8
298.15 K, m1 = 0.075	999.47 ± 0.55	1502 ± 1.8
298.15 K, m1 = 0.0797	999.61 ± 0.55	1502.3 ± 1.8
298.15 K, m1 = 0.085	999.78 ± 0.55	1502.7 ± 1.8
298.15 K, m1 = 0.0897	999.92 ± 0.55	1503 ± 1.8
298.15 K, m1 = 0.0949	1000.09 ± 0.55	1503.4 ± 1.8
298.15 K, m1 = 0.1006	1000.26 ± 0.55	1503.8 ± 1.9
308.15 K, m1 = 0.0099	994.3 ± 0.56	1520.5 ± 1.8
308.15 K, m1 = 0.0199	994.58 ± 0.56	1521.3 ± 1.8
308.15 K, m1 = 0.0301	994.85 ± 0.56	1522 ± 1.8
308.15 K, m1 = 0.04	995.12 ± 0.56	1522.7 ± 1.8
308.15 K, m1 = 0.0501	995.39 ± 0.56	1523.5 ± 1.8
308.15 K, m1 = 0.055	995.52 ± 0.56	1523.9 ± 1.8
308.15 K, m1 = 0.06	995.64 ± 0.56	1524.2 ± 1.8
308.15 K, m1 = 0.0649	995.76 ± 0.56	1524.6 ± 1.8
308.15 K, m1 = 0.0699	995.9 ± 0.56	1525 ± 1.8
308.15 K, m1 = 0.0751	996.03 ± 0.56	1525.3 ± 1.8
308.15 K, m1 = 0.0799	996.15 ± 0.56	1525.7 ± 1.8
308.15 K, m1 = 0.0851	996.28 ± 0.56	1526.1 ± 1.8
308.15 K, m1 = 0.09	996.41 ± 0.56	1526.4 ± 1.8
308.15 K, m1 = 0.095	996.53 ± 0.56	1526.8 ± 1.8
308.15 K, m1 = 0.1002	996.67 ± 0.56	1527.2 ± 1.8

[Cl-].[K+] [potassium chloride] + O
Conditions	mass density, 288.15 K [kg/m3]	mass density, 298.15 K [kg/m3]	mass density, 308.15 K [kg/m3]	speed of sound, 288.15 K [m/s]	speed of sound, 298.15 K [m/s]	speed of sound, 308.15 K [m/s]
m1 = 0.06	1002.26 ± 0.55	1000.42 ± 0.55	997.25 ± 0.56	1467.4 ± 1.8	1498.3 ± 1.8	1522.2 ± 1.8
m1 = 0.1	1003.48 ± 0.55	1001.79 ± 0.55	998.71 ± 0.56	1469.6 ± 1.8	1502.5 ± 1.8	1525.1 ± 1.8
